Assay results: US20230174538A1, “Tricyclic heterocycles” (Merck Patent GmbH, priority 2020, published 2023)

These compounds were tested on YAP-TEAD interaction (assay: SK-HEP-1 reporter assay (8xTEAD responsive elements driving NanoLuc luciferase)). Settings: Homo sapiens, SK-HEP1, SK-HEP-1 reporter assay.
Format: cell-based
How it was run: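 Luminescence after NanoGlo addition gave reporter activity, and IC50 values came from duplicate 10-point curves (top final concentration 30 μM, 0.3% DMSO). The cells were SK-HEP-1 with a stably integrated 8×TEAD-driven NanoLuc gene, exposed to compound for 24 h at 37 °C.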

SMILES	IC50
Cn1cc2c3cc(C(=O)NCCc4nc(C5CC5)n[nH]4)ccc3n(-c3ccc(C(F)(F)F)cc3)c2n1 [Example B28, N-[2-(3-cyclopropyl-1H-1,2,4-triazol-5-yl)ethyl]-2-methyl-8-[4-(trifluoro-methyl)phenyl]-2H,8H-pyrazolo[3,4-b]indole-5-carboxamide]	100 to 10000 nM
CCCc1nc(C)c(CNC(=O)c2ccc3c(c2)c2cn(C)nc2n3-c2ccc(C(F)(F)F)cc2)o1 [B124^]	10 to 100 nM
Cn1cc2c3cc(C(=O)N[C@@H]4[C@H](O)[C@@H]5CCC[C@@H]54)ccc3n(-c3ccc(C(F)(F)F)cc3)c2n1 (relative stereo) [Example B43, N-[(1R,5S,6S,7R)-7-hydroxy-bicyclo[3.2.0]heptan-6-yl]-2-methyl-8-[4-(trifluoromethyl)phenyl]-2H,8H-pyrazolo[3,4-b]indole-5-carboxamide]	100 to 10000 nM
Cn1cc2c3cc(C(=O)NC[C@@H]4C[C@H]4C4CCOCC4)ccc3n(-c3ccc(C(F)(F)F)cc3)c2n1 [B116^]	> 10000 nM
Cc1cnc2n1CCC2NC(=O)c1ccc2c(c1)c1cn(C)nc1n2-c1ccc(C(F)(F)F)cc1 (centres unmarked) [Example B57, 2-methyl-N-(3-methyl-5H,6H,7H-pyrrolo[1,2-a]imidazol-7-yl}-8-[4-(trifluoromethyl)phenyl]-2H,8H-pyrazolo[3,4-b]indole-5-carboxamide]	100 to 10000 nM
Cn1cc2c3cc(C(=O)N[C@@H]4C[C@@H]5OCCC[C@@H]54)ccc3n(-c3ccc(C(F)(F)F)cc3)c2n1 [B114^]	> 10000 nM
Cn1cc2c3cc(C(=O)N[C@@H]4COC5(CCC5)[C@H]4O)ccc3n(-c3ccc(C(F)(F)F)cc3)c2n1 (relative stereo) [Example B23, N-[(7R,8S)-8-hydroxy-5-oxaspiro[3.4]octan-7-yl]-2-methyl-8-[4-(trifluoromethyl)phenyl]-2H,8H-pyrazolo[3,4-b]indole-5-carboxamide]	100 to 10000 nM
Cn1cc2c3cc(C(=O)N4CC(F)(F)CC4(C)CO)ccc3n(-c3ccc(C(F)(F)F)cc3)c2n1 (centres unmarked) [Example B35, (4,4-difluoro-2-methyl-1-{2-methyl-8-[4-(trifluoromethyl)phenyl]-2H,8H-pyrazolo[3,4-b]indole-5-carbonyl}pyrrolidin-2-yl)methanol]	> 10000 nM
Cn1cc2c3cc(C(=O)N4CC(O)(c5ccsc5)C4)ccc3n(-c3ccc(C(F)(F)F)cc3)c2n1 [B135^]	100 to 10000 nM
COCC(NC(=O)c1ccc2c(c1)c1cn(C)nc1n2-c1ccc(C(F)(F)F)cc1)c1ccc(C)o1 (centres unmarked) [Example B34, N-[2-methoxy-1-(5-methylfuran-2-yl)ethyl]-2-methyl-8-[4-(trifluoromethyl)phenyl]-2H,8H-pyrazolo[3,4-b]indole-5-carboxamide]	10 to 100 nM
CCn1nnc(C)c1CNC(=O)c1ccc2c(c1)c1cn(C)nc1n2-c1ccc(C(F)(F)F)cc1 [Example B96, N-[(1-ethyl-4-methyl-1H-1,2,3-triazol-5-yl)methyl]-2-methyl-8-[4-(trifluoromethyl)phenyl]-2H,8H-pyrazolo[3,4-b]indole-5-carboxamide]	100 to 10000 nM
Cn1cc2c3cc(C(=O)NCCn4ccc(C5CC5)n4)ccc3n(-c3ccc(C(F)(F)F)cc3)c2n1 [B107^]	100 to 10000 nM
Cn1cc2c3cc(C(=O)N4CCCC(OCC5CC5)C4)ccc3n(-c3ccc(C(F)(F)F)cc3)c2n1 (centres unmarked) [Example B62, 3-(cyclopropylmethoxy)-1-{2-methyl-8-[4-(trifluoromethyl)phenyl]-2H,8H-pyrazolo[3,4-b]indole-5-carbonyl}piperidine]	> 10000 nM
COCC1(C)CCCN1C(=O)c1ccc2c(c1)c1cn(C)nc1n2-c1ccc(C(F)(F)F)cc1 (centres unmarked) [Example B89, 2-(methoxymethyl)-2-methyl-1-{2-methyl-8-[4-(trifluoromethyl)phenyl]-2H,8H-pyrazolo[3,4-b]indole-5-carbonyl}pyrrolidine]	100 to 10000 nM
Cn1cc2c3cc(C(=O)N4CC(c5ocnc5CO)C4)ccc3n(-c3ccc(C(F)(F)F)cc3)c2n1 [Example B30, [5-(1-{2-methyl-8-[4-(trifluoro-methyl)phenyl]-2H,8H-pyrazolo[3,4-b]indole-5-carbonyl}azetidin-3-yl)-1,3-oxazol-4-yl]methanol]	> 10000 nM
Cn1cc2c3cc(C(=O)NC(CF)c4cnnn4C)ccc3n(-c3ccc(C(F)(F)F)cc3)c2n1 (centres unmarked) [Example B91, N-[2-fluoro-1-(1-methyl-1H-1,2,3-triazol-5-yl)ethyl]-2-methyl-8-[4-(trifluoromethyl)phenyl]-2H,8H-pyrazolo[3,4-b]indole-5-carboxamide]	10 to 100 nM
Cn1cc2c3cc(C(=O)NC4CCCN(CCF)C4)ccc3n(-c3ccc(C(F)(F)F)cc3)c2n1 (centres unmarked) [B143^]	> 10000 nM
Cn1cc2c3cc(C(=O)NC4(Cc5nc[nH]n5)CC4)ccc3n(-c3ccc(C(F)(F)F)cc3)c2n1 [Example B80, 2-methyl-N-{1-[(1H-1,2,4-triazol-3-yl)methyl]cyclopropyl}-8-[4-(trifluoromethyl)phenyl]-2H,8H-pyrazolo[3,4-b]indole-5-carboxamide]	10 to 100 nM
Cn1cc2c3cc(C(=O)NCc4cncn4CCF)ccc3n(-c3ccc(C(F)(F)F)cc3)c2n1 [Example B82, N-{[1-(2-fluoroethyl)-1H-imidazol-5-yl]methyl}-2-methyl-8-[4-(trifluoromethyl)phenyl]-2H,8H-pyrazolo[3,4-b]indole-5-carboxamide]	100 to 10000 nM

SMILES	IC50
Cn1cc2c3cc(C(=O)N4CCCC4Cn4cncn4)ccc3n(-c3ccc(C(F)(F)F)cc3)c2n1 (centres unmarked) [Example B54, 1-[(1-{2-methyl-8-[4-(trifluoromethyl)phenyl]-2H,8H-pyrazolo[3,4-b]indole-5-carbonyl}pyrrolidin-2-yl)methyl]-1H-1,2,4-triazole]	> 10000 nM
Cn1cc2c3cc(C(=O)NC[C@H]4C[C@H](n5cncn5)C4)ccc3n(-c3ccc(C(F)(F)F)cc3)c2n1 [B140^]	> 10000 nM
Cn1cc2c3cc(C(=O)NCc4conc4C4CCC4)ccc3n(-c3ccc(C(F)(F)F)cc3)c2n1 [Example B63, N-[(3-cyclobutyl-1,2-oxazol-4-yl)methyl]-2-methyl-8-[4-(trifluoromethyl)phenyl]-2H,8H-pyrazolo[3,4-b]indole-5-carboxamide]	100 to 10000 nM
Cn1cc2c3cc(C(=O)N4CCCC4c4ccc[nH]4)ccc3n(-c3ccc(C(F)(F)F)cc3)c2n1 (centres unmarked) [Example B13, 2-(1-{2-methyl-8-[4-(trifluoromethyl)-phenyl]-2H,8H-pyrazolo[3,4-b]indole-5-carbonyl}pyrrolidin-2-yl)-1H-pyrrole]	100 to 10000 nM
COc1cc(CN(C)C(=O)c2ccc3c(c2)c2cn(C)nc2n3-c2ccc(C(F)(F)F)cc2)sn1 [B136^]	> 10000 nM
Cc1nnc2n1CCCC2NC(=O)c1ccc2c(c1)c1cn(C)nc1n2-c1ccc(C(F)(F)F)cc1 (centres unmarked) [Example B64, 2-methyl-N-(3-methyl-5H,6H,7H,8H-[1,2,4]triazolo[4,3-a]pyridin-8-yl}-8-[4-(trifluoromethyl)phenyl]-2H,8H-pyrazolo[3,4-b]indole-5-carboxamide]	> 10000 nM
Cn1cc2c3cc(C(=O)N4[C@H](CO)C[C@@H]5CCCC[C@@H]54)ccc3n(-c3ccc(C(F)(F)F)cc3)c2n1 (single isomer, unassigned) [Example B32]	100 to 10000 nM
Cc1c[nH]c(C2(NC(=O)c3ccc4c(c3)c3cn(C)nc3n4-c3ccc(C(F)(F)F)cc3)CCC2)n1 [Example B60, 2-methyl-N-[1-(4-methyl-1H-imidazol-2-yl)cyclobutyl]-8-[4-(trifluoromethyl)phenyl]-2H,8H-pyrazolo[3,4-b]indole-5-carboxamide]	100 to 10000 nM
Cn1cc2c3cc(C(=O)NC4(CCF)CCOCC4)ccc3n(-c3ccc(C(F)(F)F)cc3)c2n1 [B112^]	100 to 10000 nM
Cn1cc2c3cc(C(=O)N[C@@H]4CCO[C@H]4c4cc[nH]n4)ccc3n(-c3ccc(C(F)(F)F)cc3)c2n1 [B122^]	10 to 100 nM
Cn1cc2c3cc(C(=O)NCCc4noc(C5CC5)n4)ccc3n(-c3ccc(C(F)(F)F)cc3)c2n1 [B125^]	100 to 10000 nM
CC(NC(=O)c1ccc2c(c1)c1cn(C)nc1n2-c1ccc(C(F)(F)F)cc1)c1nn(C)cc1O (centres unmarked) [Example B14, N-[1-(4-hydroxy-1-methyl-1H-pyrazol-3-yl)ethyl]-2-methyl-8-[4-(trifluoromethyl)phenyl]-2H,8H-pyrazolo[3,4-b]indole-5-carboxamide]	100 to 10000 nM
Cn1cc2c3cc(C(=O)NC4C5CCOC5C4(C)C)ccc3n(-c3ccc(C(F)(F)F)cc3)c2n1 (centres unmarked) [Example B87, N-(7,7-dimethyl-2-oxabicyclo[3.2.0]heptan-6-yl}-2-methyl-8-[4-(trifluoromethyl)phenyl]-2H,8H-pyrazolo[3,4-b]indole-5-carboxamide]	100 to 10000 nM
Cn1cc2c3cc(C(=O)N(CCO)Cc4ccnn4C)ccc3n(-c3ccc(C(F)(F)F)cc3)c2n1 [Example B27, N-(2-hydroxyethyl)-2-methyl-N-[(1-methyl-1H-pyrazol-5-yl)methyl]-8-[4-(trifluoromethyl)phenyl]-2H,8H-pyrazolo[3,4-b]indole-5-carboxamide]	10 to 100 nM
CCn1cnnc1CNC(=O)c1ccc2c(c1)c1cn(C)nc1n2-c1ccc(C(F)(F)F)cc1 [B129^]	100 to 10000 nM
CCC(NC(=O)c1ccc2c(c1)c1cn(C)nc1n2-c1ccc(C(F)(F)F)cc1)c1c[nH]nn1 (centres unmarked) [Example B3, 2-methyl-N-[1-(1H-1,2,3-triazol-4-yl)propyl]-8-[4-(trifluoromethyl)phenyl]-2H,8H-pyrazolo[3,4-b]indole-5-carboxamide]	10 to 100 nM
Cn1cc2c3cc(C(=O)N4CCC[C@@H]4CCCO)ccc3n(-c3ccc(C(F)(F)F)cc3)c2n1 (single isomer, unassigned) [Example B18]	100 to 10000 nM
Cn1cc2c3cc(C(=O)NC(C4CC4)C4COCCO4)ccc3n(-c3ccc(C(F)(F)F)cc3)c2n1 (centres unmarked) [B115^]	100 to 10000 nM
Cn1cc2c3cc(C(=O)N(CCO)CC4CC=CCC4)ccc3n(-c3ccc(C(F)(F)F)cc3)c2n1 (centres unmarked) [Example B12, N-[(cyclohex-3-en-1-yl)methyl]-N-(2-hydroxyethyl)-2-methyl-8-[4-(trifluoromethyl)phenyl]-2H,8H-pyrazolo[3,4-b]indole-5-carboxamide]	100 to 10000 nM
